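In this assay, cells in 96-well plates receive the compound at five concentrations for 48 hours. Endpoints are linearly interpolated between the surrounding concentrations. Abbreviation: GI50, concentration required for 50% inhibition of growth.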 Activity calls are given as the source filed them. Rule as the data show it: active = GI50 up to about 1.1 µM and inactive = higher.
Assays:
Test in all cases: inhibition of tumour cell growth, NCI panel, 48 h
A498 = system: A498
ACHN = system: ACHN
CCRF-CEM = system: CCRF-CEM
DLD-1 = system: DLD-1
HOP-18 = system: HOP-18
KM-20L2 = system: KM-20L2
LOX IMVI = system: LOX IMVI
MOLT-4 = system: MOLT-4
NCI-H226 = system: NCI-H226
OVCAR-8 = system: OVCAR-8
SK-MEL-5 = system: SK-MEL-5
XF498 = system: XF498
HOP-62 = system: HOP-62
M19-MEL = system: M19-MEL
MCF7 = system: MCF7
BT-549 = system: BT-549
MDA-MB-435 = system: MDA-MB-435
MDA-N = system: MDA-N
PC-3 = system: PC-3
T47D = system: T47D

Row | Structure (SMILES) | GI50 (A498) | GI50 (ACHN) | GI50 (CCRF-CEM) | GI50 (DLD-1) | GI50 (HOP-18) | GI50 (KM-20L2) | GI50 (LOX IMVI) | GI50 (MOLT-4) | GI50 (NCI-H226) | GI50 (OVCAR-8) | GI50 (SK-MEL-5) | GI50 (XF498) | GI50 (HOP-62) | GI50 (M19-MEL) | GI50 (MCF7) | GI50 (BT-549) | GI50 (MDA-MB-435) | GI50 (MDA-N) | GI50 (PC-3) | GI50 (T47D)
1 | CC1Oc2c(c(O)cc3oc(=O)cc(-c4ccccc4)c23)C(=O)C1C (stereo unspecified) | > 100 µM (inactive) | > 100 µM (inactive) | > 100 µM (inactive) | > 100 µM (inactive) | > 100 µM (inactive) | > 100 µM (inactive) | > 100 µM (inactive) | > 100 µM (inactive) | > 100 µM (inactive) | > 100 µM (inactive) | > 100 µM (inactive) | > 100 µM (inactive) |  |  |  |  |  |  |  | 
2 | Cc1cc(C)cc(Sc2c([N+](=O)[O-])ncn2C)c1 | 20.9 µM (inactive) | 26.2 µM (inactive) | 15.6 µM (inactive) | 11.9 µM (inactive) | 1.28 µM (inactive) | 35.2 µM (inactive) | 11.5 µM (inactive) | 5.79 µM (inactive) | 6.03 µM (inactive) | 12.8 µM (inactive) | 13.8 µM (inactive) | 16.6 µM (inactive) | > 100 µM (inactive) | 22.6 µM (inactive) |  |  |  |  |  | 
3 | Cc1ccc(S(=O)(=O)N(CC(=O)O)c2ccccc2)cc1 | > 100 µM (inactive) | > 100 µM (inactive) | > 100 µM (inactive) | > 100 µM (inactive) | > 100 µM (inactive) | > 100 µM (inactive) | > 100 µM (inactive) | > 100 µM (inactive) |  | > 100 µM (inactive) | > 100 µM (inactive) |  |  | > 100 µM (inactive) |  |  |  |  |  | 
4 | O=[N+]([O-])c1ccccc1C1SCc2nc3ccccc3n21 (stereo unspecified) | 63 µM (inactive) | 92.5 µM (inactive) | 69.5 µM (inactive) | 82 µM (inactive) | > 100 µM (inactive) |  | > 100 µM (inactive) | 44 µM (inactive) |  | > 100 µM (inactive) | 18.3 µM (inactive) | 13.7 µM (inactive) | 92 µM (inactive) |  |  |  |  |  |  | 
5 | O=C1OC(c2ccccc2)=N/C1=C\c1ccc(Oc2ccc(Cl)c(Cl)c2)cc1 | > 100 µM (inactive) | 63.1 µM (inactive) | 23.1 µM (inactive) | 48.9 µM (inactive) | > 100 µM (inactive) | 56.6 µM (inactive) |  | 20.7 µM (inactive) |  | 21.2 µM (inactive) | 30.1 µM (inactive) |  | 88.3 µM (inactive) | 36.9 µM (inactive) |  |  |  |  |  | 
6 | CN1CCN(c2cc(-c3cc4ccccc4o3)oc(=O)c2C#N)CC1 | 63.8 µM (inactive) | 59 µM (inactive) | 71.4 µM (inactive) | 76 µM (inactive) |  | 89.5 µM (inactive) | 48.3 µM (inactive) | 53 µM (inactive) | 14.2 µM (inactive) | 57.7 µM (inactive) | 72.8 µM (inactive) | > 100 µM (inactive) |  |  |  |  |  |  |  | 
7 | COc1cccc(C2C(C(=O)O)=C(CO)Oc3cc4c(cc32)OCO4)c1OC (stereo unspecified) | > 100 µM (inactive) | > 100 µM (inactive) | > 100 µM (inactive) | > 100 µM (inactive) | > 100 µM (inactive) | > 100 µM (inactive) | > 100 µM (inactive) | > 100 µM (inactive) | > 100 µM (inactive) | > 100 µM (inactive) | > 100 µM (inactive) | 9.25 µM (inactive) |  | > 100 µM (inactive) |  |  |  |  |  | 
8 | C=C1C(=O)O[C@H]2[C@H]1[C@@H](OC(=O)C=C(C)C)CC1=C[C@@H](C[C@@]3(C)O[C@@H]23)OC1=O | 7.33 µM (inactive) |  | 0.859 µM (active) | 1.6 µM (inactive) | 3.05 µM (inactive) |  | 2.27 µM (inactive) | 2.15 µM (inactive) | 21.2 µM (inactive) |  | 5.55 µM (inactive) | 2.05 µM (inactive) | 27.9 µM (inactive) | 3.08 µM (inactive) |  |  |  |  |  | 
9 | COc1cc(CCCOC2OC(COC3OCC(O)C(O)C3O)C(O)C(O)C2O)cc2cc(-c3ccc4c(c3)OCO4)oc12 (stereo unspecified) | > 27.7 µM (inactive) |  | > 69.7 µM (inactive) | > 175 µM (inactive) |  | > 175 µM (inactive) | > 175 µM (inactive) | > 175 µM (inactive) | > 175 µM (inactive) | 94.6 µM (inactive) | > 175 µM (inactive) | > 175 µM (inactive) | > 175 µM (inactive) | > 175 µM (inactive) | > 175 µM (inactive) |  |  |  |  | 
10 | CC(=O)OC(C)(C)/C=C/C(=O)[C@](C)(O)[C@H]1[C@H](O)C[C@@]2(C)[C@@H]3CC=C4[C@@H](C[C@H](O)C(=O)C4(C)C)[C@]3(CO)C(=O)C[C@]12C [CUCURBITACIN A] | 0.231 µM (active) | 0.262 µM (active) | 0.286 µM (active) | 0.337 µM (active) | 0.148 µM (active) | 0.303 µM (active) | 0.207 µM (active) | 3.1 µM (inactive) | 0.0762 µM (active) | 0.615 µM (active) | 0.316 µM (active) | 0.374 µM (active) | 0.26 µM (active) | 0.451 µM (active) |  |  |  |  |  | 
11 | NC1=C(C(=O)O)C(=O)C(Nc2c(O)cccc2C(=O)O)=CC1=O | > 100 µM (inactive) | > 100 µM (inactive) |  | 31.6 µM (inactive) | > 100 µM (inactive) | > 100 µM (inactive) | > 100 µM (inactive) | > 100 µM (inactive) | > 100 µM (inactive) | > 100 µM (inactive) | 76 µM (inactive) | > 100 µM (inactive) | > 100 µM (inactive) | 18.7 µM (inactive) |  |  |  |  |  | 
12 | CC(=O)OC1CC2(O)C(CCC3(C)C(c4ccc(=O)oc4)CCC32O)C2(C)C1=CC(O)C1OC12 (stereo unspecified) | 0.113 µM (active) |  | 0.0267 µM (active) | 0.0506 µM (active) | 0.048 µM (active) | 0.067 µM (active) | 0.0687 µM (active) | 0.0281 µM (active) | 0.115 µM (active) | 0.0349 µM (active) | 0.025 µM (active) | 0.0693 µM (active) | 0.05 µM (active) | 0.0502 µM (active) | 0.0552 µM (active) |  |  |  |  | 
13 | C=CCc1cccc(/C=N\N/C(N)=N/O)c1O | 7.76 µM (inactive) |  | 2.07 µM (inactive) | 4.84 µM (inactive) | 5.09 µM (inactive) | 3.98 µM (inactive) | 3.29 µM (inactive) | 3.1 µM (inactive) | 3.18 µM (inactive) | 3.89 µM (inactive) | 3.76 µM (inactive) | 4.27 µM (inactive) | 2.28 µM (inactive) |  | 2.56 µM (inactive) |  |  |  |  | 
14 | COc1cccc2c1C(=O)c1c(O)c3c(c(O)c1C2=O)C[C@@](O)(C(=O)CO)C[C@@H]3OC1CC(N2CCOCC2)C(O)C(C)O1 (stereo partly specified) | 0.00315 µM (active) | 0.00513 µM (active) | 0.00323 µM (active) | 0.00277 µM (active) | 0.0034 µM (active) | 0.0025 µM (active) | 0.0025 µM (active) | 0.00333 µM (active) | 0.00562 µM (active) | 0.0025 µM (active) | 0.0025 µM (active) | 0.0025 µM (active) | 0.0199 µM (active) | 0.00552 µM (active) | 0.0025 µM (active) | 0.0525 µM (active) | 0.0478 µM (active) | 0.0328 µM (active) | 0.033 µM (active) | 0.0574 µM (active)
15 | O=C(OCc1ccccc1)C(Cc1ccccc1)N(Cc1ccccc1)Cc1ccccc1 (stereo unspecified) | > 100 µM (inactive) | 19.5 µM (inactive) | 25.8 µM (inactive) | > 100 µM (inactive) |  | > 100 µM (inactive) |  | 18.5 µM (inactive) |  | > 100 µM (inactive) | 5.94 µM (inactive) | 21.8 µM (inactive) | > 100 µM (inactive) | 76.7 µM (inactive) |  |  |  |  |  | 
16 | O=P1(c2ccccc2)Nc2ccccc2SSc2ccccc2N1 | 20.4 µM (inactive) |  | 12.1 µM (inactive) | 17 µM (inactive) | 19.2 µM (inactive) | 17.9 µM (inactive) | 16.2 µM (inactive) | 18.7 µM (inactive) | 17 µM (inactive) | 18.2 µM (inactive) | 16.9 µM (inactive) | 17.8 µM (inactive) | > 10 µM (inactive) | 18.7 µM (inactive) | 16.7 µM (inactive) |  |  |  |  | 
